In patent US7781398B2, “Drug comprising synthetic peptide analogs for the treatment of cancer” (Dabur Pharma Ltd., priority 2002, dated 2010):
Non-standard residues stand in square brackets, D forms with d. Residues, ends and D or L forms follow the SMILES beside them. No end group written: not given here. Ac5c = NC1(C(=O)O)CCCC1; Aib = CC(C)(N)C(=O)O

Key:
Type in all cases: cell-based
[1] = system: intracellular cAMP in MCF7 breast cancer cells; assay: cAMP levels in breast cancer cells (sandwich ELISA); conditions: 30 minutes, final peptide concentration 10^−9M, Forskolin 1 micromolar
Description: Enzyme linked sandwich immunosorbent assay was carried out on breast cancer cells (MCF7) to study the modulation in levels of cAMP upon treatment with the peptides and their combinations. The cells were cultured in sterile 6 well plates at a density of 0.5×10^6/well in DMEM supplemented with 10% FCS, and allowed to adhere overnight.
The cells were co-incubated with Forskolin at a concentration of 1 micromolar. The cells were scraped using a cell scraper and pelleted. The cell pellet was suspended in appropriate resuspension buffer (50 mM Tris, containing EDTA, 0.2 mM phenyl methyl sulfonyl fluoride (PMSF), 1 ug/ml pepstatin and 0.5 microgram/ml leupeptin adjusted to pH 7.4). The cell extracts were transferred to microcentrifuge tubes and centrifuged for 5 minutes at 10000×g. cAMP standards ranging in concentrations from 200 units/ml to 0 units/ml were prepared immediately prior to the start of the assay. Fluorescein isothiocyanate (FITC) conjugated monoclonal antibody directed to cAMP was added to microtitre wells precoated with primary monoclonal antibody against cAMP. 50 ul of sample lysates, and cAMP standards were added in duplicates in the microtitre wells containing both the monoclonals to cAMP. The wells were incubated at room temperature for 2 hours. The microtitre wells were washed three times with appropriate wash buffer (PBS 50 mM, with Tween 0.5%) and the appropriate dilution of anti FITC horse radish peroxidase conjugate was added and incubated for 30 minutes. The microtitre wells were washed thrice with the wash buffer and subsequently with distilled water. Tetra-methylbenzidine was added to each well and incubated in dark for 30 minutes at room temperature. The absorbance was measured in each well at dual wavelength of 450/595 nm within 30 minutes of the addition of stop solution and the amount of cAMP present in the cell samples calculated.

Caspase-3 = Caspase-3 induction (DEVD-pNA colorimetric) in cancer cells; conditions: each peptide 10^−8M, 6 hours
Description: PA-1 (Ovary), MDA.MB.453 (breast), HT29 (colon) and A549 (lung) cancer cells were cultured in 25 cm^2 tissue culture flasks at 37° C. in a humidified incubator containing 5% CO2. When cultures reached pre-confluence individual peptides of the combination and different combinations of the peptides as shown in Table 8 were added to different flasks such that the final concentration of each peptide in the flask was 10^−8M. The untreated flasks served as controls. The cells were incubated with drug for 6 hours.
After 6 hours of incubation cells were collected by trypsin treatment followed by centrifugation at 2000 r.p.m. for 10 minutes. The supernatant was gently removed and discarded and Lysis Buffer was added to the cell pellet (25 microliter of lysis buffer per 1×10^4 cells I a 15 ml conical tube) and incubated on ice for 10 minutes and centrifuged at 10,000-×g for 1 minute. 50 microliter of supernatant (cell lysate) was transferred to the wells of a 96-well plate. 2× Reaction buffer was prepared by adding 10 microliter of fresh DTT stock per 1 ml of 2× Reaction Buffer. 50 micro liter 2× Reaction Buffer was added to each well followed by addition of 5 micro liter of Caspase-3 colorimetric substrate (DEVD-pNA). The plate was incubated for 1-2 hours at 37° C. Following incubation the plate was read on a microplate reader at 405 nm-wavelength light the level of caspase enzymatic activity in the cell lys ate was directly proportional to the color reaction. The induction of caspase activity by the subcombinations was calculated as a percentage of control using the formula [(Sample OD/Control OD)−1]*100.

[2] = system: tyrosine phosphatase in MiaPaCa2 cells; assay: Tyrosine phosphatase activity in pancreatic cancer cells (colorimetric); conditions: 30 minutes, final peptide concentration 10^−9M
Description: The quantitation of tyrosine phosphatase was carried out colorimetrically by using their synthetic biotin labeled tyrosine phosphorylated peptide substrates. The enzyme reaction was quenched by the addition of a specific inhibitor, and the phosphorylated and dephosphorylated substrate is immobilized by binding to the streptavidin coated microtitre plate. The fraction of the unmetabolized substrate is determined by its anti phospho tyrosine antibody directly conjugated to peroxidase.
The cells were cultured in sterile 6 well plates at a density of 0.5×10^6/well in DMEM supplemented with 10% FCS, and allowed to adhere overnight. The medium was changed to DMEM. The cells were treated with appropriate concentrations of the peptide and their combinations shown in Table 6, for 30 minutes, such that in each case the final peptide concentration was 10^−9M.
The cells were lysed in appropriate lysis buffer (50 mM Tris, containing EDTA, 0.2 mM PMSF, 1 microgram/microliter pepstatin and 0.5 microgram/microliter leupeptin adjusted to pH 7.4). […]
The quantitation of phosphatase enzyme activity was performed with 30 microliter of specific substrates and the reaction was quenched with the addition of 100 micromolar sodium orthvanadate. […] After 3 washings, 100 microliter of the substrate POD was added to the wells, and the absorbance was read at 405 nm.

Compound | cAMP (% Of Control) [1] [% Of Control] | Caspase-3 % INDUCTION (Caspase-3; A549) [%] | Caspase-3 % INDUCTION (Caspase-3; HT29) [%] | Caspase-3 % INDUCTION (Caspase-3; MDA.MB453) [%] | Caspase-3 % INDUCTION (Caspase-3; PA-1) [%] | % Induction of Tyrosine phosphatase [2] [%]
CC(C)C[C@H](NC(=O)[C@H](Cc1c[nH]cn1)NC(=O)C(C)(C)NC(=O)[C@@H](NC(=O)[C@H](C)NC(=O)[C@H](Cc1c[nH]c2ccccc12)NC(=O)[C@H](CCC(N)=O)NC(=O)[C@H](N)Cc1ccccc1)C(C)C)C(N)=O [SEQ ID NO: 2, D-Phe-Gln-Trp-Ala-Val-Aib-His-Leu-NH2] (H-[dF]QWAV[Aib]HL-NH2; N-terminus assumed) | 15.4 ± 3.0 |  |  |  |  | 
CC(C)C[C@H](NC(=O)[C@@H](Cc1c[nH]c2ccccc12)NC(=O)[C@H](Cc1ccccc1)NC(=O)[C@@H](Cc1c[nH]c2ccccc12)NC(=O)[C@H](CCC(N)=O)NC(=O)[C@@H](Cc1ccccc1)NC(=O)[C@@H]1CCCN1C(=O)[C@H](CCCCN)NC(=O)[C@@H]1CCCN1C(=O)[C@H](N)CCCNC(=N)N)C(=O)NC1(C(N)=O)CCCC1 [SEQ ID NO: 3, D-Arg-Pro-Lys-Pro-D-Phe-Gln-D-Trp-Phe-D-Trp-Leu-Ac5c-NH2] (H-[dR]PKP[dF]Q[dW]F[dW]L[Ac5c]-NH2; N-terminus assumed) | 13.3 ± 4.0 | 38.5 ± 3.8 | 28.4 ± 2.4 | 22.8 ± 3.8 | 46.2 ± 2.1 | 14.3 ± 3.5
C[C@@H](O)[C@H](NC(=O)[C@H]1NC(=O)[C@H]([C@@H](C)O)NC(=O)[C@H](CCCN)NC(=O)[C@@H](Cc2c[nH]c3ccccc23)NC(=O)[C@H](Cc2ccc(O)cc2)NC(=O)[C@@H](NC(=O)[C@H](N)Cc2ccccc2)CSSC1(C)C)C(N)=O [SEQ ID NO: 4, D-Phe-Cys-Tyr-D-Trp-Orn-Thr-Pen-Thr-NH2] | 12.9 ± 5.0 | 28.4 ± 2.8 | 18.6 ± 1.9 | 18.9 ± 1.0 | 34.8 ± 1.3 | 15.6 ± 4.5
LMYPTYLK-OH [SEQ ID NO: 1, Leu-Met-Tyr-Pro-Thr-Tyr-Leu-Lys-OH] | 25.2 ± 4.5 |  |  |  |  | 
